“Also recorded” adds a separate entry of the source. Read-outs that look alike come from different tables or passages of the source. Values belong to the compound of their own block, whether it stands above or below them.
Legend:
[1] = 25° C.; cited from earlier work
[2] = for emission yield (Φ): 25° C.
Description: Emission spectra were recorded on either a ISS Greg-200 spectrofluorometer or a single-fiber spectrofluorometer discussed below. Absorption spectra were recorded on a Perkin-Elmer Lambda 5 spectrophotometer. Lifetime measurements were recorded with the ISS Greg-200 spectrofluorometer using excitation by a Coherent 700 Dye Laser with Rhodamine 6G synchronously pumped with a frequency doubled Coherent Antares mode-locked Nd:YAG laser. The mode-locker was driven by a Marconi Instruments 2022a frequency synthesizer locked in phase to another Marconi Instruments 2022a frequency synthesizer which modulated the photomultiplier tubes on the Greg-200 instrument.
Emission yields were corrected for instrument response and measured using tetraphenylporphyrin in benzene, .PHI.=0.11 [Seybold, Paul G.; Gouterman, Martin J. Mol. Spectrosc. 1969, 31, 1-13], as a standard. Lifetime measurements were calibrated with scattered light, .tau.=0. […] The output from the laser was measured before and after the experiment to ensure constant excitation intensity.

[3] = Effect of temperature on emission parameters A and B of the pH dye; assay type: physicochemical; details: for A (relative emission, lower asymptote of response vs. pH) / B (relative emission intensity, base tautomer / isosbestic point): 650 nm
Description: (§1) The effect of temperature on the parameters describing the pH dye was determined. […] The emission spectra were measured as a function of pH at 20° C., 25° C., 30° C., 37° C., and 45° C. […] The relative emission intensity, B, was defined as the ratio of the emission from the base tautomer at 650 nm to the emission from the isosbestic point. The relative emission, A, was defined as the ratio of the isosbestic point emission to the emission from the acid tautomer at 650 nm. The quantities A and B define the upper and lower asymptotes on the response vs. pH sigmoidal curve. The pKa, A, and B were determined for the series of emission spectra at each temperature by fitting the emission intensity at 650 nm to the theoretical response vs. pH curve using non-linear regression.

[4] = pKa determination from pH-dependent emission; assay type: physicochemical
Description: as §1

[5] = Solubility observations; assay type: physicochemical
Description: The polymers prepared above were soluble in acetone, dioxane, tetrahydrofuran, ethanol, and dimethylacetamide. A concentrated solution of the polymer in one of these solvents was prepared and applied to the distal tip of a methacrylate optical fiber, the tip of which had been prepared by cleaving normal to its longitudinal axis with a fresh scalpel blade. The sensors were allowed to dry overnight before use.

[6] = Absorption spectra; assay type: physicochemical; details: 25° C.
Description: Absorption spectra were recorded on a Perkin-Elmer Lambda 5 spectrophotometer.

[7] = Emission lifetime measurement; assay type: physicochemical; details: for lifetime (τ): 25° C.
Excerpt: 1969, 31, 1-13], as a standard.

[8] = aqueous solution, 540 nm excitation

Compound: O=C=O [carbon dioxide]
- pKa1 [1]: 6.35
- pKa2 [1]: 10.33
- solubility in water [1]: 0.759 ml carbon dioxide @ STP/ml water

- emission yield (Φ) ([2]; acid form, Conc. 10e-6 M): .12
- emission yield (Φ) ([2]; acid form, Conc. 10e-5 M): .12
- emission yield (Φ) ([2]; acid form, Conc. 10e-4 M): .018
- emission yield (Φ) ([2]; base form, Conc. 10e-6 M): .2
- emission yield (Φ) ([2]; base form, Conc. 10e-5 M): .22
- emission yield (Φ) ([2]; base form, Conc. 10e-4 M): .082
- emission maximum, acid peak [2, 8]: 590 nm
- emission maximum, base peak [2, 8]: 640 nm
- isosbestic point ([2]; emission spectra as a function of pH): 605 nm
- A and B vs. temperature, in words ([3]; 20-45° C.): independent of temperature
- A (relative emission, lower asymptote of response vs. pH) ([3]; 20° C.): .721 ± .062
- B (relative emission intensity, base tautomer / isosbestic point) ([3]; 20° C.): 5.07 ± .11
- A (relative emission, lower asymptote of response vs. pH) ([3]; 25° C.): .628 ± .061
- B (relative emission intensity, base tautomer / isosbestic point) ([3]; 25° C.): 4.22 ± .10
- A (relative emission, lower asymptote of response vs. pH) ([3]; 30° C.): .678 ± .072
- B (relative emission intensity, base tautomer / isosbestic point) ([3]; 30° C.): 4.95 ± .12
- A (relative emission, lower asymptote of response vs. pH) ([3]; 37° C.): .702 ± .069
- B (relative emission intensity, base tautomer / isosbestic point) ([3]; 37° C.): 4.10 ± .11
- A (relative emission, lower asymptote of response vs. pH) ([3]; 45° C.): .674 ± .127
- B (relative emission intensity, base tautomer / isosbestic point) ([3]; 45° C.): 5.48 ± .19
- pKa ([4]; 20° C. (Table 2)): 7.79 ± .03
- pKa ([4]; 25° C. (Table 1)): 7.58 ± 0.04
- pKa ([4]; 25° C. (Table 2)): 7.58 ± .01
- pKa ([4]; 30° C. (Table 2)): 7.57 ± .03
- pKa ([4]; 37° C. (Table 1)): 7.44 ± 0.05
- pKa ([4]; 37° C. (Table 2)): 7.44 ± .04
- pKa ([4]; 45° C. (Table 2)): 7.43 ± .06
- lambda max ([6]; acid form, Conc. 10e-6 M): 551 nm
- ε ([6]; acid form, Conc. 10e-6 M): 19920 M⁻¹ cm⁻¹
- lambda max ([6]; acid form, Conc. 10e-5 M): 553 nm
- ε ([6]; acid form, Conc. 10e-5 M): 19380 M⁻¹ cm⁻¹
- lambda max ([6]; acid form, Conc. 10e-4 M): 549 nm
- ε ([6]; acid form, Conc. 10e-4 M): 12650 M⁻¹ cm⁻¹
- lambda max ([6]; base form, Conc. 10e-6 M): 577 nm
- ε ([6]; base form, Conc. 10e-6 M): 38220 M⁻¹ cm⁻¹
- lambda max ([6]; base form, Conc. 10e-5 M): 576 nm
- ε ([6]; base form, Conc. 10e-5 M): 37510 M⁻¹ cm⁻¹
- lambda max ([6]; base form, Conc. 10e-4 M): 572 nm
- ε ([6]; base form, Conc. 10e-4 M): 27770 M⁻¹ cm⁻¹
- lifetime (τ) ([7]; acid form, Conc. 10e-6 M): .80 ns
- lifetime (τ) ([7]; acid form, Conc. 10e-5 M): .80 ns
- lifetime (τ) ([7]; acid form, Conc. 10e-4 M): .78 ns
- lifetime (τ) ([7]; base form, Conc. 10e-6 M): 1.38 ns
- lifetime (τ) ([7]; base form, Conc. 10e-5 M): 1.41 ns
- lifetime (τ) ([7]; base form, Conc. 10e-4 M): 1.26 ns
- lifetime, acid tautomer ([7]; acid tautomer): 800 psec
- lifetime of acid tautomer, difference from previous measurement ([7]; vs. Whitaker et al. 1991): 200 psec
Compound: seminaphthorhodaflor-1-carboxylate [SNARF-1C]
- emission spectra, in words ([2]; shift of spectra): do not differ from the previously published spectra; also recorded: did not shift with temperature
- solubility, in words [5]: The potassium salt of the acid was much easier to dissolve
- emission lifetime, in words [7]: The emission lifetimes are insensitive to concentration; also recorded: The lifetime of the acid tautomer of SNARF-1C is shorter than that for the base tautomer
